Test results published in patent US8420695B2, “Inhibitors of janus kinases” (Merck Sharp & Dohme Corp., priority 2008, dated 2013).

These compounds were tested against T1, recombinant JAK2 (JAK2 JH1 domain) (Homo sapiens, UniProt O60674) (assay: JAK2 Kinase Activity Inhibition Assay and Determination of IC50 (HTRF)). Conditions: 50 nM JAK2 JH1 domain, 15 μM MgATP, 80 min at room temperature.
T1 construct: 50 nM JAK2 JH1 domain (Upstate); purchased Upstate
Assay type: biochemical
Description: JAK2 Kinase Activity Inhibition Assay and Determination of IC50
The kinase activity was measured using a modified version of the homogeneous time-resolved tyrosine kinase assay described in Park et al. Anal. Biochem. 269, 94-104 (1999).
IC50 was obtained by fitting the observed relationship between compound/inhibitor concentration and HTRF signal with a 4-parameter logistic equation.

T1 sequence (O60674 849-1124 limits assumed): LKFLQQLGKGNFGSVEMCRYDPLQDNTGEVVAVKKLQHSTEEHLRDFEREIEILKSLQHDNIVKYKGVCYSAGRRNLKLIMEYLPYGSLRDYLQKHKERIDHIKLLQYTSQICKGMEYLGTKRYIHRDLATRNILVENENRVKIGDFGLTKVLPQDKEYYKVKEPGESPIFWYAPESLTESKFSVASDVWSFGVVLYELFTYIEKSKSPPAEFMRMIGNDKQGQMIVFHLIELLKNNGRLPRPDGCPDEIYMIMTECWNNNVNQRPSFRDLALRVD

Row | Structure (SMILES) | IC50 [µM]
1 | Cc1noc(-c2ccc(Nc3sc(-c4c(F)cc(C(C)(C)O)cc4F)cc3C(N)=O)cc2)n1 [Example 9, 5-[2,6-difluoro-4-(1-hydroxy-1-methylethyl)-phenyl]-2-{[4-(3-methyl-1,2,4-oxadiazol-5-yl)phenyl]amino} thiophene-3-carboxamide] | 1.4
2 | CC(C)(O)c1ccc(-c2cc(C(N)=O)c(Nc3cccnc3)s2)cc1 [Example 10, 5-(4-(1-Hydroxy-1-methylethyl)phenyl)-2-(3-pyridinylamino)-3-thiophenecarboxamide] | 0.22
3 | NC(=O)c1cc(-c2ccccc2)sc1Nc1ccncc1 [Example 20, 5-Phenyl-2-(pyridin-4-ylamino)-thiophene-3-carboxamide] | 0.18
4 | CN(C)C(=O)c1ccc(Nc2sc(-c3c(F)cc(C(C)(C)O)cc3F)cc2C(N)=O)cc1 [Example 5, 5-[2,6-difluoro-4-(1-hydroxy-1-methylethyl)-phenyl]-2-({4-[(dimethylamino)carbonyl]phenyl}amino)thiophene-3-carboxamide] | 0.021
5 | CC(C)(O)c1cc(F)c(-c2cc(C(N)=O)c(Nc3ccc(NS(C)(=O)=O)cc3)s2)c(F)c1 [Example 31, 5-[2,6-difluoro-4-(1-hydroxy-1-methylethyl)phenyl]-2-({4-[(methylsulfonyl)amino]phenyl}amino)thiophene-3-carboxamide] | 0.056
6 | CN(C)S(=O)(=O)c1ccc(Nc2sc(-c3c(F)cc(C(C)(C)O)cc3F)cc2C(N)=O)cc1 [Example 29, 5-[2,6-difluoro-4-(1-hydroxy-1-methylethyl)-phenyl]-2-({4-[(dimethylamino)sulfonyl]phenyl}-amino)-thiophene-3-carboxamide] | 0.044
7 | CC(C)(O)c1cc(F)c(-c2cc(C(N)=O)c(Nc3ccccc3)s2)c(F)c1 [Example 21, 2-anilino-5-[2,6-difluoro-4-(1-hydroxy-1-methylethyl)phenyl]thiophene-3-carboxamide] | 0.49
8 | CS(=O)(=O)c1ccc(Nc2sc(-c3ccc(Cl)cc3)cc2C(N)=O)cc1 [Example 2, 5-(4-chlorophenyl)-2-{[4-(methylsulfonyl)-phenyl]amino}thio-phene-3-carboxamide] | 0.22
9 | NC(=O)c1cc(-c2ccccc2)sc1Nc1cncnc1 [Example 19, 5-Phenyl-2-(pyrimidin-5-ylamino)-thiophene-3-carboxamide] | 2.6
10 | NC(=O)c1cc(-c2ccccc2)sc1Nc1cccnc1 [Example 18, 5-Phenyl-2-(pyridin-3-ylamino)-thiophene-3-carboxamide] | 0.32
11 | NC(=O)c1cc(-c2ccccc2)sc1Nc1ccccc1 [Example 17, 2-Anilino-5-phenylthiophene-3-carboxamide] | 1
12 | CC(C)(O)c1cc(F)c(-c2cc(C(N)=O)c(Nc3ccnc(CO)c3)s2)c(F)c1 [Example 7, 5-[2,6-difluoro-4-(1-hydroxy-1-methylethyl)-phenyl]-2-{[2-(hydroxymethyl)-pyridin-4-yl]amino}thio-phene-3-carboxamide] | 0.075
13 | CC(C)(O)c1cc(F)c(-c2cc(C(N)=O)c(Nc3ccncc3)s2)c(F)c1 [Example 6, 5-[2,6-difluoro-4-(1-hydroxy-1-methylethyl)-phenyl]-2-(pyridin-4-ylamino)thio-phene-3-carboxamide] | 0.12

Second part, the compound after the results:

Row | IC50 [µM] | Structure (SMILES)
14 | 0.032 | CNC(=O)c1ccc(Nc2sc(-c3c(F)cc(C(C)(C)O)cc3F)cc2C(N)=O)cc1 [Example 4, 5-[2,6-difluoro-4-(1-hydroxy-1-methylethyl)-phenyl]-2-({4-[(methylamino)-carbonyl]phenyl}-amino)thiophene-3-carboxamide]
15 | 0.021 | CC(C)(O)c1cc(F)c(-c2cc(C(N)=O)c(Nc3ccc(C(=O)N4CCOCC4)cc3)s2)c(F)c1 [Example 14, 5-[2,6-difluoro-4-(1-hydroxy-1-methylethyl)phenyl]-2-{[4-(morpholin-4-ylcarbonyl)phenyl]amino}thiophene-3-carboxamide]
16 | 0.047 | CC(C)(O)c1cc(F)c(-c2cc(C(N)=O)c(Nc3ccc(S(C)(=O)=O)cc3)s2)c(F)c1 [Example 1, 5-[2,6-difluoro-4-(1-hydroxy-1-methylethyl)phenyl]-2-{[4-(methylsulfonyl)phenyl]amino}thiophene-3-carboxamide]
17 | 0.042 | CC(C)(O)c1cc(F)c(-c2cc(C(N)=O)c(Nc3ccc(CN4CCOCC4)cc3)s2)c(F)c1 [Example 23, 5-[2,6-difluoro-4-(1-hydroxy-1-methylethyl)-phenyl]-2-{[4-(morpholin-4-ylmethyl)-phenyl]amino}-thiophene-3-carboxamide]
18 | 0.022 | CN(C)Cc1ccc(Nc2sc(-c3c(F)cc(C(C)(C)O)cc3F)cc2C(N)=O)cc1 [Example 26, 5-[2,6-difluoro-4-(1-hydroxy-1-methylethyl)-phenyl]-2-({4-[(dimethylamino)methyl]phenyl}-amino)-thiophene-3-carboxamide]
19 | 0.056 | CC(C)(O)c1cc(F)c(-c2cc(C(N)=O)c(Nc3ccc(S(=O)(=O)N4CCOCC4)cc3)s2)c(F)c1 [Example 28, 5-[2,6-difluoro-4-(1-hydroxy-1-methylethyl)phenyl]-2-{[4-(morpholin-4-ylsulfonyl)phenyl]amino}thiophene-3-carboxamide]
20 | 0.17 | CC(C)(O)c1cc(F)c(-c2cc(C(N)=O)c(Nc3ccc(CO)cc3)s2)c(F)c1 [Example 22, 5-[2,6-difluoro-4-(1-hydroxy-1-methylethyl)-phenyl]-2-{[4-(hydroxymethyl)-phenyl]amino}-thiophene-3-carboxamide]
21 | 0.029 | CC(C)(O)c1ccc(Nc2sc(-c3c(F)cc(C(C)(C)O)cc3F)cc2C(N)=O)cc1 [Example 12, 5-[2,6-difluoro-4-(1-hydroxy-1-methylethyl)phenyl]-2-{[4-(1-hydroxy-1-methylethyl)phenyl]amino}thiophene-3-carboxamide]
22 | 0.41 | CC(C)(O)c1cc(F)c(-c2cc(C(N)=O)c(Nc3ccc(C=O)cc3)s2)c(F)c1 [Example 24, 5-[2,6-difluoro-4-(1-hydroxy-1-methylethyl)phenyl]-2-[(4-formylphenyl)amino]thiophene-3-carboxamide]
23 | 0.11 | CC(=O)c1ccc(Nc2sc(-c3c(F)cc(C(C)(C)O)cc3F)cc2C(N)=O)cc1 [Example 11, 2-[(4-acetylphenyl)amino]-5-[2,6-difluoro-4-(1-hydroxy-1-methylethyl)phenyl]thiophene-3-carboxamide]
24 | 0.026 | CC(C)(O)c1cc(F)c(-c2cc(C(N)=O)c(Nc3ccc(CN4CCS(=O)(=O)CC4)cc3)s2)c(F)c1 [Example 25, 5-[2,6-difluoro-4-(1-hydroxy-1-methylethyl)phenyl]-2-({4-[(1,1-dioxidothiomorpholin-4-yl)methyl]phenyl}amino)thiophene-3-carboxamide]
